Test results: paper PMC8311653, “Design, Synthesis, In Vitro and In Vivo Characterization of Selective NKCC1 Inhibitors for the Treatment of Core Symptoms in Down Syndrome” (Journal of Medicinal Chemistry, 2021)
In brackets after ≈: the same amount, converted by molar mass.

How the values were obtained:
[1] = Aqueous kinetic solubility in PBS pH 7.4; format: physicochemical; conditions: phosphate buffered saline (PBS); aqueous kinetic solubility from 10 mM DMSO solution in PBS pH 7.4; target concentration 250 μM (final DMSO 2.5%)
Method: 1. Aqueous kinetic solubility.
30 µL aliquots of 10 mM DMSO stock solution of the test compound were incubated in Phosphate
Buffered Saline (PBS) at pH 7.4 at 25°C for 24h. After centrifugation the dissolved compound in the
supernatant was quantified by LC-MS/MS.
Aqueous kinetic solubility was determined by UV quantification at
215 nm. […]

NKCC1 = target: T1, NKCC1 (Homo sapiens, UniProt P55011); assay: Cl- influx assay in NKCC1-transfected HEK293 cells; format: cell-based; conditions: for Inhibition 10 μM Cl- influx (%) / Inhibition 100 μM Cl- influx (%): NKCC1-transfected HEK293 cells; for inhibition at 100 µM: HEK293, read-out: Inhibition 100 μM Cl- influx (%); for inhibition at 10 µM: HEK293, read-out: Inhibition 10 μM Cl- influx (%)
T1 construct: host or cells: HEK293
T1 sequence (P55011 1-1212): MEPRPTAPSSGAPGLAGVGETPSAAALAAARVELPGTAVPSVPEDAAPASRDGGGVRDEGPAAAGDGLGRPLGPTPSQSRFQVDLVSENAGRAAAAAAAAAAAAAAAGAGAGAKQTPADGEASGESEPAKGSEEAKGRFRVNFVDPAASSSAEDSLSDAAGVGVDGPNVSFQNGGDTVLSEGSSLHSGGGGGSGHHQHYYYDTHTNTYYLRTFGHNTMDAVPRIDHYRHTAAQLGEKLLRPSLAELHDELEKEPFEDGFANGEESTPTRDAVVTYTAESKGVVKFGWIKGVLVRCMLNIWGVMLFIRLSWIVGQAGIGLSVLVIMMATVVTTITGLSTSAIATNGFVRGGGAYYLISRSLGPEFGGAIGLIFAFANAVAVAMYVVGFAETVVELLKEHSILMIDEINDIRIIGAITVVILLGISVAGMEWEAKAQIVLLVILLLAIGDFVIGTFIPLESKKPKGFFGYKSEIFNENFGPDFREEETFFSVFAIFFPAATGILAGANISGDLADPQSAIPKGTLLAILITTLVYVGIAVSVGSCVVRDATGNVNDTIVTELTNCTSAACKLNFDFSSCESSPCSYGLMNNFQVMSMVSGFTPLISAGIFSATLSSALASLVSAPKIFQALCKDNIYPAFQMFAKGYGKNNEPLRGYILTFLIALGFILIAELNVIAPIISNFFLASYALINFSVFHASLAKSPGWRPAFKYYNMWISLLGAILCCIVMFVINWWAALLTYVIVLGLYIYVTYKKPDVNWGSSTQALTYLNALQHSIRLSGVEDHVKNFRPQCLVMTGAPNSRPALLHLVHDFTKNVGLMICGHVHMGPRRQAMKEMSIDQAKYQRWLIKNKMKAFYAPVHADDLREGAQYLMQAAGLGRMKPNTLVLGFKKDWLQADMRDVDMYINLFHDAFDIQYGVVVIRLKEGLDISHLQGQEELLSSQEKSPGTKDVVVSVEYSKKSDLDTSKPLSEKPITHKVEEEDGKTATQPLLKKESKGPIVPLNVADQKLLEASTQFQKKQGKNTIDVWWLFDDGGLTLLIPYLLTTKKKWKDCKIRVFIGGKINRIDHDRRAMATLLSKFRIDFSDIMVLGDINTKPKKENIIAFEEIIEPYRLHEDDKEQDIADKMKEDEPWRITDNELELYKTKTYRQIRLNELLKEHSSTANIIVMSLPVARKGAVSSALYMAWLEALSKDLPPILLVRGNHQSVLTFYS
Method: HEK293 cells were cultured in Dulbecco’s modified Eagle’s medium (DMEM) supplemented with 10% fetal bovine serum, 1% L-glutamine, 100 U/mL penicillin, and 100 μg/mL streptomycin and maintained at 37 °C in a 5% CO2 humidified atmosphere. To assess NKCC1 and NKCC2 activity (Cl^– influx assay), 3 million HEK cells were plated in a 10 cm cell-culture dish and transfected with a transfection mixture comprising 5 mL of DMEM, 4 mL of Opti-MEM, 8 μg of DNA plasmid coding for NKCC1 (PRK-NKCC1 obtained from Medical Research Council and the University of Dundee), NKCC2 (OriGene plasmid #RC216145) subcloned in PRK5 plasmid, or mock control (empty vector), together with 8 μg of a plasmid coding for the Cl^–-sensitive variant of the membrane-targeted fluorescent protein YFP, mbYFPQS (Addgene plasmid #80742),[53] and 32 μL of Lipofectamin 2000. To assess KCC2 activity (Tl influx assay), cells were transfected with 8 μg of KCC2[54] subcloned in the PRK5 plasmid or mock control (empty vector) and 16 μL of Lipofectamin 2000. After 4 h, the cells were collected and plated in 96-well black-walled, clear-bottomed plates at a density of 2.5 × 10^4. After 48 h, cells were used for the Cl^– or Tl influx assays. All reagents were purchased from Life Technologies, unless otherwise specified.
Transfected cells were treated with 10 μM or 100 μM bumetanide (as positive controls), DMSO (as the negative control), or with each of our compounds in 100 μL/well of a Cl^–-free hypotonic solution (67.5 mM Na^+ gluconate, 2.5 mM K^+ gluconate, 15 mM HEPES pH 7.4, 50 mM glucose, 1 mM Na2HPO4, 1 mM NaH2PO4, 1 mM MgSO4, and 1 mM CaSO4). After 30 min of incubation, plates were loaded into a Victor 3V (PerkinElmer) multiplate reader equipped with an automatic liquid injector system, and fluorescence of Cl^–-sensitive mbYFPQS was recorded with excitation at 485 nm and emission at 535 nm. For each well, fluorescence was first recorded for 20 s of the baseline and for 60 s after delivery of a NaCl concentrated solution (74 mM final concentration in the assay well). Fluorescence of Cl^–-sensitive mbYFPQS is inversely correlated to the intracellular Cl^– concentration;[53] therefore, chloride influx into the cells determined a decrease in mbYFPQS fluorescence. To represent the fluorescent traces in time, we normalized the fluorescence value for each time point to the average of the fluorescence value of the first 20 s of the baseline (ΔF/F0). To quantify the average effects as represented by the bar plots, we expressed the decrease in fluorescence upon NaCl application as the average of the last 10 s of ΔF/F0 normalized traces. Moreover, for each experiment, to account for the contribution of Cl^– changes that were dependent on transporters/exchangers other than NKCC1 or NKCC2, we subtracted the value of the last 10 s of ΔF/F0 normalized traces obtained from mock-transfected cells (either control or treated) from the respective ΔF/F0 value obtained from the cells transfected with NKCC1 or NKCC2. We then presented in the figures all the data as a percentage of the fluorescence decrease versus the value of the control DMSO.

[2] = In vitro metabolic stability in mouse liver microsomes; conditions: tissue homogenate, pH 7.4
Method: 1. Aqueous kinetic solubility. […]
3. In vitro mouse microsomial stability. […]
microsomes (Sekisui Xenotech, LCC), 0.1M Tris-HCl buffer (pH 7.4), and 10% DMSO. The final […]
After pre-incubation, the cofactors (NADPH, G6P, G6PDH, MgCl2 pre-dissolved in 0.1M Tris-HCl) were added to the incubation mixture and the incubation was continued at 37 °C for 1h. At each time point (0, 5, 15, 30, 60 min), 30µL of incubation mixture was diluted with 200 µL cold acetonitile spiked with 200 nM of warfarin as internal standard, followed by centrifugation at 3500 g for 30 min. The supernatant was further diluted with H2O (1:1) for analysis.
An aliquot of 200 µl of the supernatant was removed, and the concentration of the test compound was […]
quantified by LC-MS/MS. The percentage of the test compound remaining at each time point relative […]
to t=0 was calculated. The half-lives (t½) were determined by a one-phase decay equation using a […]
non-linear regression of compound concentration vs time.

SMILES	solubility at 24 h [1]	Inhibition 10 μM Cl- influx (%) (NKCC1)	inhibition at 100 µM (NKCC1)	half-life at 5 μM [2]	Inhibition 100 μM Cl- influx (%) (NKCC1)	inhibition at 10 µM (NKCC1)
CCCCCCCCNc1ccc(C(=O)O)cc1S(N)(=O)=O [Compound 17, 4-(Octylamino)-3-sulfamoyl-benzoic Acid]	> 250 µM	Inactive	24 ± 8.5%	18 min	–	–
CCCCCCNc1ccc(C(=O)O)cc1S(=O)(=O)NC [Compound 20, 4-(Hexylamino)-3-(methylsulfamoyl)benzoic Acid]	247 µM (≈ 77.7 µg/mL)	Inactive	–	29 min	Inactive	–
CCCCCCCCNc1ccc(C(=O)O)cc1S(=O)(=O)NC [Compound 21, 3-(-N-Methylsulfamoyl)-4-(octylamino)benzoic Acid]	53 µM (≈ 18.2 µg/mL)	–	20.1 ± 14.7%	12 min	–	16.2 ± 4.8%
CCCCCCNc1ccc(C(=O)O)cc1S(=O)(=O)N(C)C [Compound 24, 3-(-N,N-Dimethylsulfamoyl)-4-(hexylamino)benzoic Acid]	243 µM (≈ 79.8 µg/mL)	Inactive	19.8 ± 5.2%	17 min	–	–
CCCCCCCCNc1ccc(C(=O)O)cc1S(=O)(=O)N(C)C [Compound 25, 3-(-N,N-Dimethylsulfamoyl)-4-(octylamino)benzoic Acid]	52 µM (≈ 18.5 µg/mL)	Inactive	70.6 ± 9.2%	13 min	–	–
CN(C)S(=O)(=O)c1cc(C(=O)O)ccc1NCCC(C)(C)C [Compound 26, 4-(-N-3,3-Dimethylbutylamino)-3-(dimethylsulfamoyl)benzoic Acid]	> 250 µM	Inactive	–	> 60 min	Inactive	–
CN(C)S(=O)(=O)c1cc(C(=O)O)ccc1NCCCC(F)(F)F [Compound 27, 3-(-N,N-Dimethylsulfamoyl)-4-(4,4,4-trifluorobutylamino)benzoic Acid]	245 µM (≈ 86.8 µg/mL)	Inactive	1.9 ± 5%	> 60 min	–	–
CN(C)S(=O)(=O)c1cc(C(=O)O)ccc1NCCCCCC(F)(F)F [Compound 28, 3-(-N,N-Dimethylsulfamoyl)-4-(6,6,6-trifluorohexylamino)benzoic Acid]	249 µM (≈ 95.2 µg/mL)	Inactive	12.6 ± 4.1%	> 60 min	–	–
COCCNc1ccc(C(=O)O)cc1S(=O)(=O)N(C)C [Compound 29, 3-(-N,N-Dimethylsulfamoyl)-4-(2-methoxyethylamino)benzoic Acid]	237 µM (≈ 71.7 µg/mL)	–	4.1 ± 5%	> 60 min	–	1.4 ± 2.7%
COCCCCNc1ccc(C(=O)O)cc1S(=O)(=O)N(C)C [Compound 30, 3-(-N,N-Dimethylsulfamoyl)-4-(4-methoxybutylamino)benzoic Acid]	247 µM (≈ 81.6 µg/mL)	Inactive	5.2 ± 3.7%	> 60 min	–	–
